Reference: the supplement of paper PMC10331698
± gives the standard deviation of the averaged measurements.

Tests used:
Test in all cases: level (log10 ratio to DMSO vehicle control); higher = higher biomarker level / cell amount than vehicle control
[1] = compound: OCC(F)(F)C(F)(F)C(F)(F)C(F)F [1H,1H,5H-Perfluoropentanol] (in DMSO)
Method: (§1)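 BioMAP Diversity Plus panel of 12 human primary cell co-culture systems (3C, 4H, LPS, SAg, BT, BF4T, BE3C, CASM3C, HDF3CGF, KF3CT, MyoF, Mphg). Compounds were added 1 h before stimulation and left for 24 h (MyoF 48 h; BT 72 h for soluble read-outs or 6 d for IgG). Biomarkers were read by ELISA, cytotoxicity by SRB, PBMC viability and proliferation by Alamar Blue. Each well value was divided by the mean of 8 DMSO control wells on the same plate and log10 transformed; duplicate blinded samples were tested at 4 concentrations.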

[2] = compound: OCC(F)(F)C(F)(F)C(F)(F)C(F)(F)C(F)(F)C(F)(F)CO [1H,1H,8H,8H-Perfluorooctane-1,8-diol] (in DMSO)
Method: as §1

[3] = compound: O=S(=O)(O)CCC(F)(F)C(F)(F)C(F)(F)C(F)(F)C(F)(F)C(F)(F)C(F)(F)C(F)(F)F [8:2 Fluorotelomer sulfonic acid] (in DMSO)
Method: as §1

[4] = compound: C[C@@H]1C[C@H]2[C@@H]3CCC4=CC(=O)C=C[C@]4(C)[C@@]3(F)[C@@H](O)C[C@]2(C)[C@@]1(O)C(=O)COP(=O)(O)O [Dexamethasone sodium phosphate] (in DMSO)
Method: as §1

[5] = compound: CCOC(=O)CC(=O)C(F)(F)C(F)(F)F [Ethyl pentafluoropropionyl acetate] (in DMSO)
Method: as §1

[6] = compound: O=C(O)C(F)(F)C(F)(F)C(F)(F)C(F)(F)C(=O)O [Octafluoroadipic acid] (in DMSO)
Method: as §1

[7] = compound: O=C(O)C(F)(F)OC(F)(F)C(F)(F)OC(F)(F)C(F)(F)OC(F)(F)C(F)(F)C(F)(F)C(F)(F)F [Perfluoro-3,6,9-trioxatridecanoic acid] (in DMSO); details: 6700 nM
Method: as §1

Row | Test System | level (log10) ([1]; 6700 nM) | level (log10) ([1]; 20000 nM) | level (log10) ([1]; 60000 nM) | level (log10) ([2]; 6700 nM) | level (log10) ([2]; 20000 nM) | level (log10) ([2]; 60000 nM) | level (log10) ([3]; 6700 nM) | level (log10) ([3]; 20000 nM) | level (log10) ([3]; 60000 nM) | level (log10) ([4]; 1500 nM) | level (log10) ([4]; 4400 nM) | level (log10) ([4]; 13000 nM) | level (log10) ([4]; 40000 nM) | level (log10) ([5]; 6700 nM) | level (log10) ([5]; 20000 nM) | level (log10) ([5]; 60000 nM) | level (log10) ([6]; 6700 nM) | level (log10) ([6]; 20000 nM) | level (log10) ([6]; 60000 nM) | level (log10) [7]
1 | CASM3C:Proliferation | -0.018 ± 0.055 | 0.0175 ± 0.07 | -0.0245 ± 0.03 | -0.01 ± 0.0057 | -0.024 ± 0.0099 | -0.0305 ± 0.044 | 0.005 ± 0.072 | 0.0065 ± 0.022 | 0.0245 ± 0.023 | 0.084 ± 0.025 | 0.033 ± 0.024 | 0.062 ± 0.025 | 0.059 ± 0.0042 | -0.049 ± 0.04 | -0.014 ± 0.0085 | -0.0155 ± 0.00071 | -0.066 ± 0.0071 | -0.004 ± 0.073 | 0.014 ± 0.051 | -0.012 ± 0.016
2 | CASM3C:SRB | 0.0025 ± 0.0035 | 0.0015 ± 0.0021 | 0.0045 ± 0.00071 | -0.001 ± 0.0085 | -0.001 ± 0.0085 | -0.007 ± 0.011 | 0.0075 ± 0.005 | 0.0055 ± 0.005 | 0.0105 ± 0.0035 | -0.0005 ± 0.016 | -0.008 ± 0.017 | -0.013 ± 0.0057 | -0.0115 ± 0.00071 | 0.0035 ± 0.0021 | 0.0015 ± 0.0035 | 0.002 ± 0.011 | -0.006 ± 0.0057 | -0.0025 ± 0.005 | -0.006 ± 0.0057 | 0.0025 ± 0.00071
3 | CASM3C:Serum Amyloid A | -0.077 ± 0.014 | -0.058 ± 0.044 | -0.0135 ± 0.049 | -0.013 ± 0.038 | -0.0215 ± 0.033 | -0.022 ± 0.035 | 0.0195 ± 0.0064 | 0.0475 ± 0.025 | 0.096 ± 0.0042 | 0.489 ± 0.034 | 0.473 ± 0.015 | 0.4675 ± 0.0021 | 0.469 ± 0.022 | 0.0005 ± 0.0035 | -0.012 ± 0.0014 | 0.0155 ± 0.029 | -0.032 ± 0.037 | -0.0515 ± 0.011 | 0.0105 ± 0.005 | -0.0305 ± 0.013
4 | HDF3CGF:CCL2/MCP-1 | -0.046 ± 0.027 | -0.014 ± 0.068 | -0.0225 ± 0.047 | -0.012 | -0.0175 ± 0.015 | -0.0185 ± 0.016 | 0.0005 ± 0.022 | -0.008 ± 0.03 | 0.0115 ± 0.022 | -0.015 ± 0.035 | -0.0405 ± 0.023 | -0.038 ± 0.0099 | -0.044 ± 0.0085 | -0.022 ± 0.0042 | -0.0135 ± 0.005 | 0.009 ± 0.047 | -0.0025 ± 0.052 | 0.0075 ± 0.036 | 0 ± 0.033 | -0.274 ± 0.013
5 | HDF3CGF:CD54/ICAM-1 | 0 | -0.01 ± 0.0014 | 0.009 ± 0.023 | -0.01 ± 0.0099 | 0.009 ± 0.0099 | 0.019 ± 0.0014 | -0.012 ± 0.017 | -0.04 ± 0.011 | -0.0805 ± 0.012 | 0.004 ± 0.0057 | 0.029 ± 0.042 | 0.01 ± 0.038 | 0.026 ± 0.013 | 0.006 ± 0.017 | 0.0055 ± 0.0092 | -0.012 ± 0.034 | 0.004 | 0.004 ± 0.0099 | 0.0005 ± 0.016 | -0.076 ± 0.016
6 | HDF3CGF:CD106/VCAM-1 | -0.0535 ± 0.015 | 0.023 ± 0.048 | 0.0145 ± 0.043 | 0.02 ± 0.033 | 0.0365 ± 0.00071 | 0.017 ± 0.052 | 0.0015 ± 0.091 | 0.007 ± 0.073 | -0.072 ± 0.045 | -0.006 ± 0.057 | -0.0145 ± 0.035 | -0.054 ± 0.045 | -0.121 ± 0.073 | 0.007 ± 0.011 | -0.0025 ± 0.005 | 0.006 ± 0.02 | -0.001 ± 0.0071 | -0.016 ± 0.016 | -0.03 ± 0.04 | -0.479 ± 0.037
7 | HDF3CGF:CXCL8/IL-8 | -0.0045 ± 0.0064 | -0.002 ± 0.0014 | 0.0095 ± 0.032 | 0.002 ± 0.0071 | -0.0015 ± 0.005 | 0.009 ± 0.0099 | -0.0145 ± 0.0064 | -0.0045 ± 0.0035 | -0.0015 ± 0.026 | -0.039 ± 0.014 | -0.0725 ± 0.005 | -0.0645 ± 0.018 | -0.0515 ± 0.039 | -0.005 ± 0.0028 | -0.0045 ± 0.011 | -0.002 ± 0.021 | -0.0005 ± 0.0078 | 0.003 ± 0.0014 | 0.0065 ± 0.0092 | 0.003 ± 0.0042
